Drawing on US20220409619A1, “INHIBITORS OF HUMAN IMMUNODEFICIENCY VIRUS REPLICATION” (VIIV HEALTHCARE UK (No. 5) LIMITED, priority 2019, published 2022), this text covers EC50 and CC50 for 8 compounds.

In data set [1] the test system is recombinant NL4-3 virus (nef section replaced with Renilla luciferase gene) in MT-2 cells. The data set can be described thus: HIV cell culture assay (antiviral activity, luciferase readout). Conditions: Renilla, NL43. Format: cell-based. The method, boiled down: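 MT-2 cells were infected for 4-5 days with 293T-derived NL4-3 Renilla-luciferase reporter virus in the presence of serial compound dilutions. Luciferase was read with EnduRen live-cell substrate. EC50 was fitted with the median effect equation.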

Data set [2] can be described thus: Compound cytotoxicity, XTT-based colorimetric assay. Type of data set: cell-based. Particulars: human; uninfected MT2 cells, day 4, XTT-based colorimetric assay. The method, boiled down: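 Run under the antiviral-assay protocol but without virus. Viability was read on day 4 and CC50 values were derived from the readout.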
For orientation: Tetrazolium assays rely on reduction of a dye to a coloured formazan, in cell work by metabolically active cells.

Turning to `O=C(Cn1nc(C(F)F)c2c1C(F)(F)[C@@H]1C[C@H]21)N[C@@H](Cc1cc(F)cc(F)c1)c1nc(-c2nccc(C(F)F)n2)cc(=O)n1-c1ccc(Cl)c2c(NS(=O)(=O)C3CC3)nn(CC(F)F)c12` (atropisomer, axis not shown; (aR)) [Example 27, N-((S)-1-((1′P)-1′-(4-chloro-3-(cyclopropanesulfonamido)-1-(2,2-difluoroethyl)-1H-indazol-7-yl)-4-(difluoromethyl)-6′-oxo-1′,6′-dihydro-[2,4′-bipyrimidin]-2′-yl)-2-(3,5-difluorophenyl)ethyl)-2-((3bS,4aR)-3-(difluoromethyl)-5,5-difluoro-3b,4,4a,5-tetrahydro-1H-cyclopropa[3,4]cyclopenta[1,2-c]pyrazol-1-yl)acetamide], the concentration giving a half-maximal response (EC50) in data set [1] is 0.13 nM. This compound also yielded a CC50 at 4 days in data set [2] of more than 100 nM.
For `CCOc1cnc(-c2cc(=O)n(-c3ccc(Cl)c4c(NS(=O)(=O)C5CC5)nn(CC(F)F)c34)c([C@H](Cc3cc(F)cc(F)c3)NC(=O)Cn3nc(C(F)F)c4c3C(F)(F)[C@@H]3C[C@H]43)n2)nc1` (atropisomer, axis not shown; (aR)) [Example 29, N-((S)-1-((1′P)-1′-(4-chloro-3-(cyclopropanesulfonamido)-1-(2,2-difluoroethyl)-1H-indazol-7-yl)-5-ethoxy-6′-oxo-1′,6′-dihydro-[2,4′-bipyrimidin]-2′-yl)-2-(3,5-difluorophenyl)ethyl)-2-((3bS,4aR)-3-(difluoromethyl)-5,5-difluoro-3b,4,4a,5-tetrahydro-1H-cyclopropa[3,4]cyclopenta[1,2-c]pyrazol-1-yl)acetamide], in data set [1], the EC50 is 0.052 nM. For the same compound, in data set [2], the CC50 at 4 days was more than 100 nM.
On to `O=C(Cn1nc(C(F)F)c2c1C(F)(F)[C@@H]1C[C@H]21)N[C@@H](Cc1cc(F)cc(F)c1)c1nc(-c2ncc(F)cn2)cc(=O)n1-c1ccc(Cl)c2c(NS(=O)(=O)C3CC3)nn(CC(F)F)c12` (atropisomer, axis not shown; (aR)) [Example 30, N-((S)-1-((1′P)-1′-(4-chloro-3-(cyclopropanesulfonamido)-1-(2,2-difluoroethyl)-1H-indazol-7-yl)-5-fluoro-6′-oxo-1′,6′-dihydro-[2,4′-bipyrimidin]-2′-yl)-2-(3,5-difluorophenyl)ethyl)-2-((3bS,4aR)-3-(difluoromethyl)-5,5-difluoro-3b,4,4a,5-tetrahydro-1H-cyclopropa[3,4]cyclopenta[1,2-c]pyrazol-1-yl)acetamide], for which the half-maximal effective concentration (EC50) in data set [1] worked out at 0.2 nM. In data set [2], the CC50 at 4 days was more than 100 nM.
With `O=C(Cn1nc(C(F)(F)F)c2c1C(F)(F)[C@@H]1C[C@H]21)N[C@@H](Cc1cc(F)cc(F)c1)c1nc(-c2nccc(C(F)F)n2)cc(=O)n1-c1ccc(Cl)c2c(NS(=O)(=O)C3CC3)nn(CC(F)F)c12` (atropisomer, axis not shown; (aR)) [Example 32, N-((S)-1-((1′P)-1′-(4-chloro-3-(cyclopropanesulfonamido)-1-(2,2-difluoroethyl)-1H-indazol-7-yl)-4-(difluoromethyl)-6′-oxo-1′,6′-dihydro-[2,4′-bipyrimidin]-2′-yl)-2-(3,5-difluorophenyl)ethyl)-2-((3bS,4aR)-5,5-difluoro-3-(trifluoromethyl)-3b,4,4a,5-tetrahydro-1H-cyclopropa[3,4]cyclopenta[1,2-c]pyrazol-1-yl)acetamide], the concentration giving a half-maximal response (EC50) in data set [1] is 0.3 nM. The compound also registered a cytotoxic concentration (CC50) at 4 days in data set [2] of more than 100 nM.
On to `COc1ccnc(-c2cc(=O)n(-c3ccc(Cl)c4c(NS(=O)(=O)C5CC5)nn(CC(F)F)c34)c([C@H](Cc3cc(F)cc(F)c3)NC(=O)Cn3nc(C(F)F)c4c3C(F)(F)[C@@H]3C[C@H]43)n2)n1` (atropisomer, axis not shown; (aR)) [Example 33, N-((S)-1-((1′P)-1′-(4-chloro-3-(cyclopropanesulfonamido)-1-(2,2-difluoroethyl)-1H-indazol-7-yl)-4-methoxy-6′-oxo-1′,6′-dihydro-[2,4′-bipyrimidin]-2′-yl)-2-(3,5-difluorophenyl)ethyl)-2-((3bS,4aR)-3-(difluoromethyl)-5,5-difluoro-3b,4,4a,5-tetrahydro-1H-cyclopropa[3,4]cyclopenta[1,2-c]pyrazol-1-yl)acetamide], for which the half-maximal effective concentration (EC50) in data set [1] was found to be 0.13 nM. The CC50 at 4 days in data set [2] was more than 100 nM.
For `Cc1cc(C)nc(-c2cc(=O)n(-c3ccc(Cl)c4c(NS(=O)(=O)C5CC5)nn(CC(F)F)c34)c([C@H](Cc3cc(F)cc(F)c3)NC(=O)Cn3nc(C(F)F)c4c3C(F)(F)[C@@H]3C[C@H]43)n2)n1` (atropisomer, axis not shown; (aR)) [Example 34, N-((S)-1-(1′-(4-chloro-3-(cyclopropanesulfonamido)-1-(2,2-difluoroethyl)-1H-indazol-7-yl)-4,6-dimethyl-6′-oxo-1′,6′-dihydro-[2,4′-bipyrimidin]-2′-yl)-2-(3,5-difluorophenyl)ethyl)-2-((3bS,4aR)-3-(difluoromethyl)-5,5-difluoro-3b,4,4a,5-tetrahydro-1H-cyclopropa[3,4]cyclopenta[1,2-c]pyrazol-1-yl)acetamide] the same measures were 0.24 nM and more than 100 nM.
In the same order, the values of `CCc1cnc(-c2cc(=O)n(-c3ccc(Cl)c4c(NS(=O)(=O)C5CC5)nn(CC(F)F)c34)c([C@H](Cc3cc(F)cc(F)c3)NC(=O)Cn3nc(C(F)F)c4c3C(F)(F)[C@@H]3C[C@H]43)n2)nc1` (atropisomer, axis not shown; (aR)) [Example 39, N-((S)-1-((1′P)-1′-(4-chloro-3-(cyclopropanesulfonamido)-1-(2,2-difluoroethyl)-1H-indazol-7-yl)-5-ethyl-6′-oxo-1′,6′-dihydro-[2,4′-bipyrimidin]-2′-yl)-2-(3,5-difluorophenyl)ethyl)-2-((3bS,4aR)-3-(difluoromethyl)-5,5-difluoro-3b,4,4a,5-tetrahydro-1H-cyclopropa[3,4]cyclopenta[1,2-c]pyrazol-1-yl)acetamide] are 0.059 nM and more than 100 nM.
For `Cc1ccnc(-c2cc(=O)n(-c3ccc(Cl)c4c(NS(=O)(=O)C5CC5)nn(CC(F)F)c34)c([C@H](Cc3cc(F)cc(F)c3)NC(=O)Cn3nc(C(F)F)c4c3C(F)(F)[C@@H]3C[C@H]43)n2)n1` (atropisomer, axis not shown; (aR)) [Example 43, N-((S)-1-((1′P)-1′-(4-chloro-3-(cyclopropanesulfonamido)-1-(2,2-difluoroethyl)-1H-indazol-7-yl)-4-methyl-6′-oxo-1′,6′-dihydro-[2,4′-bipyrimidin]-2′-yl)-2-(3,5-difluorophenyl)ethyl)-2-((3bS,4aR)-3-(difluoromethyl)-5,5-difluoro-3b,4,4a,5-tetrahydro-1H-cyclopropa[3,4]cyclopenta[1,2-c]pyrazol-1-yl)acetamide] the same measures were 0.17 nM and more than 100 nM.

What is called EC50 is the concentration giving half of the maximal effect. By CC50 is commonly meant the concentration that lowers cell viability or growth by half. Low readings indicate harm at low concentration, high ones better tolerance by the cells.
